Test system: 4T-1-HER2 mammary tumors
Assay: 4T1-HER2 mammary tumors in syngeneic female BALB/c mice treated with anti-HER2 CAR-T, BQ-788-B and anti-PD1
Format: in vivo
Source text: Lentivirus for expression of an anti-HER2 CAR was produced by co-transfecting 293T-17 cells with lentiviral vector pLVX-EF1α-CAR-IRES-ZsGreen1 together with the packaging plasmids pSPAX2 and pMD2.G. Splenocytes from 6-week old female BALB/c mice were isolated by density-gradient centrifugation using a lymphocyte separation medium, Histopaque, activated in 24-well plates at a density of 1×10^6 cell/ml using a mouse T Cell Activation/Expansion Kit for 2-3 days, and then transduced with pLVX-EF1α-CAR-IRES-ZsGreen1 lentivirus at the multiplicity of infection of 20 in the presence of 8 µg/mL polybrene by centrifugation at 1,500×g for 2 hours at 32° C. GFP+ transduced T cells were analyzed by flow cytometry to evaluate the lentiviral transduction efficiency.
4T1-HER2 cells (4×10^6), were resuspended in 0.1 mL PBS and mixed with 0.1 mL Matrigel and injected subcutaneously into the right back region of BALB/c female mice (6-week-old, weighed 17-20 g). Tumor growth was monitored by caliper measurement every three days.
About 14 days after 4T-1-HER2 cell injection, when the tumor diameter reaches about 6 mm in diameter, mice were randomized into eight groups for treatments (6 mice per group).
Blank T or CAR-T cells (1×10^7 cells/mice) were injected intravenously into each mouse on day 11 and day 18 post-tumor inoculation. BQ-788-B ([…]) or PBS was administered via subcutaneous injection into each mouse, starting on day 10, every two or three days for a total of 9 injections. All mice were injected intraperitoneally with 20,000 IU IL-2 once every 2 days from day 14 to […] (Note: day 0 is defined as when 4T1-HER2 cells are injected into mice). Anti-PD1 or isotype control Ig (230 ug/mouse) was injected IP every 4 days, starting on day 11 post tumor inoculation (4 injections total). The eight treatment groups are listed below: • 1) Blank T+PBS+isotype • 2) CAR-T+PBS+isotype • 3) BQ-788-B+Blank T+isotype • 4) Blank T+PBS+anti-PD1 • 5) BQ-788-B+CAR-T+ isotype • 6) CAR-T+PBS+anti-PD1 • 7) BQ-788-B+Blank T+anti-PD1 • 8) BQ-788-B+CAR-T+ anti-PD1
Tumor growth was monitored by caliper measurement every three days. On the 30th day after 4T1-HER2 cell injection, all mice were euthanized by asphyxiation with CO2 followed by cervical dislocation. All tumors were dissected out and photographed before fixation in 10% formalin.

[2H]C[C@@H]1CCC[C@H](C[2H])N1C(=O)N[C@@H](CC(C)(C)C)C(=O)N[C@H](Cc1cn(C(=O)OC)c2ccccc12)C(=O)N[C@H](CCCC)C(=O)O [BQ-788-B]
tumor volumes at day 29 (BQ-788-B in combination with anti-PD1 and/or CAR-T therapy, compared to control, CAR-T alone, or PD-1 alone, FIG. 4): significantly reduced tumor volumes
tumor weights at day 30 (BQ-788-B in combination with anti-PD1 and/or CAR-T therapy, compared to control, CAR-T alone, or PD-1 alone, FIGS. 5A and 5B): significantly reduced tumor weights
anti-tumor efficacy of CAR-T cells, of anti-PD-1 antibody therapy and of their combinations (addition of BQ-788-B): significantly enhances the anti-tumor efficacy
tumor suppression at later time points (addition of BQ-788-B in mice treated with either anti-PD1 or CAR-T therapy): enhanced tumor suppression

From US20260130999A1, “METHODS FOR TREATING CANCERS ASSOCIATED WITH ETBR ACTIVATION” (ENB Therapeutics, Inc., priority 2022, published 2026)
